Tests used:
[1] = in vivo metabolite study (metabolic stability, radio-HPLC of brain homogenate and plasma); set-up: species or system female CD-1 mice; settings: for percentage of intact radiotracer in the brain / percentage of intact radiotracer in the plasma: female CD-1 mice, 30 min after the injection, radio-HPLC; for metabolic stability (comparison in words): in vivo, compared with another radiotracer
Experimental: The metabolic stability of [^18F]JHU94620-D4 was determined in accordance with the method described by Moldovan et al., J. Med. Chem. 2016, 59, 7840-7855. In the same way, the metabolic stability of JHU94620 and [^18F]JHU94620 was determined. The radio-HPLC chromatograms shown in FIGS. 3 and 4 were determined using a ReproSil-Pur C18 AQ column (250×4.6 mm, […]; eluting agent: 10-90-10% MeCN/20 mM NH4OAc; flow: 1 ml/min). JHU94620 has the following formula: […]
It is seen in FIG. 4 that in the in vivo metabolite study in female CD-1 mice the percentage of intact radiotracer [^18F]JHU94620-D4 in the brain was ~80% (radio-HPLC, extraction yield >97%) and in the plasma was ~15% (radio-HPLC, extraction yield >95%) 30 min after the injection.
In the in vivo metabolite study in female CD-1 mice in case of JHU94620 the percentage of intact radiotracer in the brain was 36% (radio-HPLC, n=3, extraction yield 93%) and in the plasma was 7% (radio-HPLC, n=3, extraction yield 94%) of the total activity 30 min after the injection.

[2] = target: T1, CBR2 (Homo sapiens, UniProt P34972); assay: CBR2 equilibrium dissociation constant Ki via Cheng-Prusoff equation; format: binding; settings: n = 3; read-out: CBR2 affinity Ki
T1 sequence (P34972 whole entry): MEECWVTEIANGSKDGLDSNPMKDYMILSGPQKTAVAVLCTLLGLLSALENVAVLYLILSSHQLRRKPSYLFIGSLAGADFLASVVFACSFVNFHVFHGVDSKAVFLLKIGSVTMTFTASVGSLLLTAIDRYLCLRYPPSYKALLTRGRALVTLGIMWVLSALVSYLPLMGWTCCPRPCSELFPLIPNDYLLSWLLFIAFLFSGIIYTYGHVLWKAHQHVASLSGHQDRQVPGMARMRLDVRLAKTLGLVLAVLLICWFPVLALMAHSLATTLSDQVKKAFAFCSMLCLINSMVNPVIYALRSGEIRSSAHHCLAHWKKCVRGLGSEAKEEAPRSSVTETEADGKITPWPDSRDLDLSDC
Experimental: Using the Cheng-Prusoff equation
the CBR2 equilibrium dissociation constant Ki of JHU94620 was determined. Here, L designates the concentration of the free ligand. […] Replacing hydrogen atoms by […] shall not have any influence on the Ki value. This also applies to the replacement of hydrogen atoms by tritium ions.

[3] = target: T1, CBR2; assay: homolog competition assay, homogenate of CHO cells stably transfected with human CBR2 receptor, radioligand [^18F]JHU94620-D8; format: binding; set-up: expressed in transfected cells; host or cells: CHO cells (stably transfected), used as homogenate
Experimental: The equilibrium dissociation constant KD was determined by means of a homolog competition assay. For that, a constant amount of binding protein (homogenate of CHO cells that were stably transfected with human CBR2 receptor; 2 Mio. cells/mL of the batch) was incubated with a constant amount of [^18F]JHU94620-D8 (0.101 nM in the batch) and an increasing concentration of JHU94620 (0.01 nM-10 µM in the batch) for 60 minutes at room temperature in binding buffer (50 mM TRIS-HCl, pH 7.4, with 5 mM of MgCl2, 1 mM EDTA, 1% BSA). Separation of receptor-bound and free radioligand was carried out by filtration over GF/B glass fiber filter incubated with 0.3% of polyethylene imine. Quantification of receptor-bound radioligand was carried out by measuring the filter-bound radioactivity in a gamma counter. Determination of the unspecific bonding of [^18F]JHU94620-D8 was carried out by co-incubation with CP55940 (10 µM in the batch), determination of the adsorption of the radioligand at the glass fiber filter was carried out by incubation without binding protein. […] CP55940 is a synthetic cannabinoid.

[4] = background statement on prior-art compound; cited from earlier work

Compound | percentage of intact radiotracer in the brain [1] | percentage of intact radiotracer in the plasma [1] | Ki [2] [nM] | IC50 ([3]; competition of JHU94620 (0.01 nM-10 µM) with 0.101 nM [^18F]JHU94620-D8, 60 minutes, room temperature) [nM] | metabolic stability (prior art statement) [4] | metabolic stability (comparison in words) [1] | Kd ([3]; calculated as KD = IC50 - radioligand (simplified Cheng-Prusoff), read-out: equilibrium dissociation constant KD) [nM]
Cc1s/c(=N\C(=O)C2C(C)(C)C2(C)C)n(CCCCF)c1C [JHU94620] | 36% | 7% | 0.4 | 2.82 | – | – | –
Cc1s/c(=N\C(=O)C2C(C)(C)C2(C)C)n(CCCC[18F])c1C [[^18F]JHU94620, N-(3-(4-([^18F]fluoro)butyl)-4,5-dimethylthiazole-2(3H)-ylidene)-2,2,3,3-tetramethylcyclopropane-1-carboxamide] | 38% | – | – | – | low metabolic stability | – | –
[2H]C([2H])([18F])CCC([2H])([2H])n1c(C)c(C)s/c1=N\C(=O)C1C(C)(C)C1(C)C [[^18F]JHU94620-D4, N-(3-(4-([^18F]fluoro)butyl-1,1,4,4-d4)-4,5-dimethylthiazole-2(3H)-ylidene)-2,2,3,3-tetramethylcyclopropane-1-carboxamide] | ~ 80% | ~ 15% | – | – | – | substantially higher metabolic stability than [^18F]JHU94620 | –
[2H]C([2H])([18F])C([2H])([2H])C([2H])([2H])C([2H])([2H])n1c(C)c(C)s/c1=N\C(=O)C1C(C)(C)C1(C)C [[^18F]JHU94620-D8, N-(3-(4-([^18F]fluoro)butyl-1,1,2,2,3,3,4,4-ds)-4,5-dimethylthiazole-2(3H)-ylidene)-2,2,3,3-tetramethylcyclopropane-1-carboxamide] | – | – | – | – | – | highly similar to that of [^18F]JHU94620-D4 | 2.72
